Experimental data: patent US7291451B2, “Modulation of pericyte proliferation” (XOMA Technology Ltd., priority 2000, dated 2007)
Entries after “also recorded” stand apart in the source; their conditions may differ.

What was measured:
[1] = tested on: bovine retinal pericytes (BRPC); assay: Cell growth assay (DNA content, cell number) in bovine retinal pericytes; format: cell-based; conditions: for stimulation of proliferation: 5, 10 or 15% FBS
Procedure: (§1) A cell growth assay was performed as follows: Cells were plated onto 12-well culture plates and incubated overnight. The cells were treated with vehicle, vascular endothelial growth factor (VEGF, R & D Systems, Minneapolis, Minn.) at 25 ng/ml, serum, compounds, or combinations thereof. The medium is changed during the incubation period, with fresh medium and fresh test compound added every 2 days. After incubation for indicated time period at 37° C., the cells were lysed in 0.1% SDS and DNA content was measured by means of Hoechst-33258 dye and a fluorometer (model TKO-100, Hoefer Scientific Instruments, San Francisco, Calif.). It has been shown that total cellular DNA content measured in this manner correlates closely with actual cell number as determined by hemocytometer counting of trypsinized cells.
Determinations were performed in triplicate and all experiments were repeated at least three times. Results are expressed as the mean ±standard deviation, unless otherwise indicated. Statistical analysis employed Student's t-test or analysis of variance to compare quantitative data populations with normal distributions and equal variance. Data were analyzed using the Mann-Whitney rank sum test or the Kruskal-Wallis test for populations with non-normal distributions or unequal variance. A P-value of <0.05 was considered statistically significant.
Primary cultures of bovine retinal pericytes (BRPC) were isolated by homogenization and a series of filtration steps as described in King et al., J. Clin. Invest., 1985, 75:1028-36. BRPC were cultured in Dulbecco's modified Eagle's medium (DMEM, Gibco BRL, Grand Island, N.Y.) with 5.5 mM glucose and 20% fetal bovine serum (FBS, Gibco BRL, Grand Island, N.Y.). Cells were characterized for homogeneity by their immunoreactivity with monoclonal antibody 3G5 [Nayak et al., J. Exp. Med. 1988, 167:1003-15]. Cells remained morphologically unchanged under these conditions, as confirmed by light microscopy. Only cells from passages 2 through 7 were used for the experiments.
A cell growth assay was performed as described above in Example 1 and the medium was changed, with fresh medium and fresh test compound added every 2 or 3 days, preferably every 2 days. […] At 20% FBS a six to seven fold increase of total DNA was detected.

[2] = tested on: Bovine retinal pigment epithelial cells (RPEC); assay: Cell growth assay in bovine retinal pigment epithelial cells; format: cell-based; conditions: 15 μg/ml
Procedure: as §1
Bovine retinal pigment epithelial cells (RPEC) were isolated by gentle scraping after removal of the neural retina and incubation with 0.2% collagenase as described in King et al., Diabetes, 1987, 36:1460-7. RPEC were cultured in DMEM with 5.5 mM glucose and 10% calf serum (CS, Gibco BRL, Grand Island, N.Y.). Cells were cultured in 5% CO2 at 37° C., and media were changed every other days. Cells were characterized for their homogeneity by immunoreactivity with anti-cytokeratin antibody for RPEC. […]

[3] = tested on: ischemia-induced retinal neovascularization; assay: Ischemia-induced retinal neovascularization in neonatal mice; format: in vivo
Description: To produce ischemia-induced retinal neovascularization, litters of 7-day-old (postnatal day 7, P7) C57BL/6J mice and their nursing mothers were exposed to 75±2% oxygen for 5 days and then returned to ambient air at age P12 as described in Smith et al., Invest. Ophthalmol. Vis. Sci., 1994, 35:101-111. […] Control animals received saline. After sacrifice and enucleation, flat-mounted, fluorescein-conjugated dextran-perfused retinas were examined to assess the retinal vasculature. This mouse model reflects the effects of hypoxia on inducing angiogenesis in the retina. After birth, the mice are exposed to a high level oxygen for 4-5 days. The effect of high levels of oxygen will decrease or prevent the growth of blood vessels in the retina. Once the mice have been removed from the hyperoxic condition to normal oxygen levels, the retina will develop hypoxia due to the lack of blood vessels. The hypoxia in the retina will induce many growth factors (including VEGF) which leads to a angiogenic response that can be quantitated by measuring the number of nuclei in the blood vessels above the internal limiting membrane. This mouse model of angiogenesis is thought to be a good animal reflection of retinopathy of prematurity. The main growth factor responsible for retinal angiogenesis in this mouse model is thought to be due to the expression of VEGF. […] These neovascular rufts were most prominent on P17-19, but after P23 the neovascularization regressed, and the vascular pattern normalized by P26. As described in Aiello et al., Proc. Nat'l Acad. Sci. USA, 1995, 92:10457-61, mice at P17 (n=5) were deeply anesthetized with pentobarbitol sodium (100 mg/kg) and sacrificed by cardiac perfusion with 4% paraformaldehyde in phosphate-buffered saline. Eyes were enucleated and fixed in 4% paraformaldehyde at 4° C. overnight, and enbedded in paraffin. Over 50 serial sections (6 μm) including optic nerve head were placed on microscope slides. After staining with periodic acid/Schiff reagent and hematoxylin, 10 intact sections of equal length, each 30 μm apart, were evaluated for a span of 300 μm. All retinal vascular cell nuclei anterior to the internal limiting membrane were counted in each section by a fully masked protocol. The mean of all 10 counted sections yielded average neovascular cell nuclei per 6 μm section per eye. No vascular cell nuclei anterior to the internal limiting membrane are observed in normal unmanipulated animals.

How did the stimulation of proliferation ([1]; 5 μg/mL) turn out when “XMP.679: BPI-derived peptide derived from BPI domain II, SEQ ID NO: 3 (KLFKAQAKAKG; XMP.679; listed as Homo sapiens)” was run?
The stimulation of proliferation was about 2 fold.

And the “growth increase as potency of 20% FBS” value ([1]; 5 μg/ml, 5% FBS)?
Its value is 30 to 40%.

And the “growth compared with 20% FBS” value ([1]; 5 μg/ml, 10% FBS)?
Its value is “equaled the effect of 20% FBS”.

What about the retinal pericyte proliferation ([1]; 5 μg/ml, 10% FBS) of the same substance?
Its retinal pericyte proliferation is “greatest increase”.

And the “growth compared with 15 or 20% FBS (trend)” value ([1]; 5 μg/ml, 15% FBS)?
The value was “may have more growth effect than either 15 or 20% FBS”.

And the stimulation of proliferation ([1]; 15 μg/mL)?
Its stimulation of proliferation is “no enhancement”.

What about the effect on growth ([1]; 15 μg/ml (higher concentration), 5% FBS, 3 or 6 days) of the same substance?
Its effect on growth is “did not increase growth; also recorded: did not show-a growth stimulating effect”.

And the effect on growth ([1]; 15 μg/ml, 10% FBS)?
Its effect on growth is “did not have much growth effect”.

What about the retinal pericyte proliferation ([1]; 20 μg/ml, 10% FBS) of the same substance?
Its retinal pericyte proliferation is “did not”.

And the “pericyte DNA content” value ([1]; 1, 5, 10, and 15 μg/ml, 10% FBS)?
The value was “Statistically significant increases”.

And the effect on growth ([1]; 1 or 5 μg/ml, 5% FBS, 6 days)?
The effect on growth was “increased growth”.

And the effect on growth ([1]; 15% FBS, concentration not given)?
The effect on growth was “did not increase the growth of pericyte in 15% FBS to any significant amount”.

And the growth promoting effect [2]?
The growth promoting effect was 20 to 30%.

What about the “decrease of number of nuclei anterior to the internal limiting membrane” value ([3]; 10 mg/kg daily intraperitoneal, p<0.001) of the same substance?
Its value is 30 to 40%.

And the “retinal vasculature compared with control mice” value ([3]; 10 mg/kg intraperitoneal every 24 hrs P12 to P17)?
Its value is “fewer blood vessels with much less density and tortuosity”.

What about the “decrease of number of nuclei anterior to the internal limiting membrane” value ([3]; 20 mg/kg daily intraperitoneal, p<0.01) of the same substance?
Its value is “approximately 71%”.

And the “inhibition of retinal neovascularization (dose response)” value ([3]; range of 10-20 mg/kg)?
Its value is “inhibits retinal neovascularization in a dose responsive manner”.
